In article PMC8400257, “2-Phenoxy-3-Trichloromethylquinoxalines Are Antiplasmodial Derivatives with Activity against the Apicoplast of Plasmodium falciparum” (Pharmaceuticals, 2021):
Entries after “also recorded” stand apart in the source; their conditions may differ.

Key:
HepG2 cell line = assay: In vitro alkaline comet assay; type: cell-based, human
Protocol: The human hepatocarcinoma cell line HepG2 was obtained from the American Type Culture Collection (ATCC, ref. HB-8065). Cells were cultured in Eagle’s minimum essential medium (EMEM, ref. ATCC®® 30-2003TM) and supplemented with 10% heat-inactivated foetal bovine serum, 100 U/mL penicillin, and 0.1 mg/mL streptomycin (all from Gibco). Cells were maintained at 37 °C in a humidified atmosphere with 5% CO2 and used in passage number 11 to 15. Two concentrations of the compound 3i (3.2 and 16 µM) were tested at 2 different times of incubation (2 and 72 h). Briefly, HepG2 cells were seeded at 1.13 × 10^5 cells/mL in 6-well plates (3 mL of cell suspension per well) and incubated at 37 °C in a humidified atmosphere with 5% CO2. After 24 and 94 h of incubation, cells were treated with different concentrations of the compound or the vehicle (0.5% dimethylsulfoxide, DMSO) for 72 and 2 h, respectively. Additionally, in the 2 h treatment plate, cells in an additional well were treated with 1 mM MMS as positive control for the comet assay. After treatment, medium was removed from the wells and cells were washed with phosphate buffered saline (PBS). Finally, cells were trypsinized and trypsin was neutralized with fresh medium. From this point, cells were kept ice-cold to avoid DNA repair.
The standard alkaline comet assay was employed for the detection of DNA strand breaks (SBs) and alkali-labile sites (ALS) in cells treated with molecule 3i. Trypsinized HepG2 cells were centrifuged at 125 × g for 5 min at 4 °C and resuspended in cold PBS at 1 x 10^6 cells/mL. For the preparation of the agarose gels, 30 µL of cell suspension were mixed with 140 µL of 1% low melting point agarose in PBS at 37 °C and 2 aliquots of 70 µL of cell/agarose mixture were placed on agarose-precoated microscope slides. Each droplet was covered with a 20 × 20 mm coverslip and, after 2–3 min on a cold metal plate, the coverslips were removed. Then, slides were immersed in lysis solution (2.5 M NaCl, 0.1 M Na2EDTA, 0.01 M Tris base, pH 10, and 1% Triton X-100) at 4 °C for 1 h. After lysis, slides were transferred to the electrophoresis tank and incubated for 40 min at 4 °C in the electrophoresis solution (0.3 M NaOH, 1 mM Na2EDTA, pH > 13) to allow DNA unwinding. After that, electrophoresis was carried out at 1 V/cm for 20 min (4 °C). Then, gels were neutralized and washed by immersing the slides in PBS for 10 min and distilled water for another 10 min (both at 4 °C). Gels were then air-dried at room temperature. Comets were stained by adding 30 µL of […] of 4,6- diamidino-2-phenylindole (DAPI) on top of each gel and placing 22 × 22 mm coverslips on top. Slides were incubated with DAPI at room temperature for 30 min before the analysis. The semi-automated image analysis system Comet Assay IV (Instem, Stone, UK) was used to evaluate 50 comets per gel (i.e., 100 comets/condition). The percentage of DNA in tail was the descriptor used for each comet.
The median percentage of DNA in tail for 50 comets was calculated for each of the duplicate gels in each experiment, and the mean of the two medians were then calculated. The mean percentage of DNA in tail of 3 independent experiments and the standard deviation (SD) were calculated.

[1] = test system: P. falciparum ART-resistant strain F32-ART5; assay: Standard in vitro chemo-sensitivity assay, F32-ART5; type: cell-based; conditions: Plasmodium falciparum, F32, 48 h, read-out: Mean ± SEM EC50 values F32-ART5
Protocol: The Plasmodium falciparum ART-resistant strain F32-ART5 and its tween ART-sensitive strain F32-TEM [33, 41] were cultivated at 37 °C with 5% CO2 in human red blood cells (EFS, French Blood Bank) diluted to 2% hematocrit in RPMI-1640 medium (Biowest, Nuaillé, France) supplemented with 5% human serum (EFS, French Blood Bank), as previously reported.
The chemosensitivity assay was carried out in 96-well culture plates on synchronized ring-stage parasites at 1% parasitemia obtained after D-sorbitol treatment. The antiplasmodial activities were evaluated using the SYBR Green I method. Parasites were exposed for 48 h to a range of concentrations of the different tested compounds. Each drug concentration was tested in triplicates. Parasite pellets were then washed in 1× PBS prior to lysing red blood cells at −20 °C overnight. Then, the plates were thawed and 100 µL of each well were transferred into a black 96-well plate. Next, 100 µL per well of SYBR Green I (Thermo Fisher) diluted at a final concentration of 2× in lysis buffer (20 mM Tris base pH 7.5, 5 mM EDTA, 0.008% w/v saponin, 0.08% w/v Triton X-100) were added and left to incubate for 1 h at room temperature prior to reading the plates on BioTek FLx800 Microplate Fluorescence Reader (λexcitation = 485 nm, λemission = 528 nm). Relative EC50 values were determined using GraphPad Prism software.

[2] = test system: primary human hepatocytes; assay: Hepatotoxicity by count of DAPI-stained hepatocyte nuclei; type: cell-based; conditions: dose range up to 30 µM
Protocol: Finally, we studied the hepatotoxicity of (3i). This was carried out by quantification of DAPI-stained hepatocyte nuclei in culture wells. Generally, if a drug is hepatotoxic, it causes death and detachment of hepatocytes leading to less hepatocyte nuclei counts.
Upon immunostaining of parasites, the study plates were scanned using a CellInsight high-content screening platform equipped with the Studio HCS software (Thermo Fisher Scientific, Waltham, MA, USA). The details of analysis is provided elsewhere. The number of host hepatocyte nuclei per well was counted by the system as a measure of toxicity of 3i towards the liver cells.

## O=[N+]([O-])c1ccc(Oc2nc3ccccc3nc2C(Cl)(Cl)Cl)cc1 [3i, 2-(4-Nitrophenoxy)-3-trichloromethylquinoxaline]
HepG2 cell line; HepG2, 3.2 and 16 µM, short (2 h) or long (72 h) exposition
  In vitro comet assay: DNA strand breaks or alkali labile sites (genotoxicity): not genotoxic; also recorded: did not induce DNA strand breaks or alkali labile sites
HepG2 cell line; HepG2, 2 h, 3.2 µM
  In vitro comet assay result: negative
HepG2 cell line; HepG2, 2 h, 16 µM
  In vitro comet assay result: negative
HepG2 cell line; HepG2, 72 h, 3.2 µM
  In vitro comet assay result: negative
HepG2 cell line; HepG2, 72 h, 16 µM
  In vitro comet assay result: negative
[1]
  EC50: 0.4 ± 0.105 µM
[2]
  Cytotoxicity on human hepatocytes (hepatocyte nuclei counts): no cytotoxicity on human hepatocytes; also recorded: no cytotoxicity was observed
